Test [1] concerns IL-12 induced Th1 differentiation. As to the kind of experiment: IL-12 dependent in vitro T-helper cell (Th1) differentiation assay. Type of test: cell-based. The conditions noted are these: 168 h, inhibition of IL-12 induced Th1 differentiation as defined by IFN-γ production upon secondary stimulation with anti-CD3 alone, splenic T cells, anti-CD3 and 5 U/ml IL-12, seven days. The method, then:
This example illustrates the inventive compounds' ability to suppress Th1 differentiation in vitro by blocking IL-12 signaling. Each of compounds [A through Y] were tested in an IL-12 dependent in vitro T-helper cell differentiation assay as described in LeGross et al., J. Exp. Med., 172:921-929 (1990). Recombinant IL-12 was used to induce Th1 differentiation. Splenic T cells were purified utilizing the antibodies RA3-3A1/6.1 (anti-B220), J11d and MAR18.5 (anti-rat kappa chain) to deplete the B cells by magnetic bead separation, as described in Coon et al, J. Immuno., 163:6567-6574 (1989). Splenic T cells were stimulated at 5×10^5/ml with insoluble anti-CD3 alone (145-2C11, Pharmingen, San Diego, Calif.), or anti-CD3 and 5 U/ml IL-12, with and without each inventive compound. After seven days, equal numbers of viable cells were restimulated for 24 hours with anti-CD3 without the inventive compounds, and the supernatants were collected and assayed for IFN-γ production. IFN-γ and IL-4 levels were measured by ELISA test specific for IFN-γ and IL-4.
Th1 differentiation was induced by culturing anti-CD3 stimulated T cells in the presence of exogenous IL-12. […] It was observed that the presence of the tested compounds during T cell activation inhibited Th1 differentiation, which had been enhanced by the addition of exogenous IL-12. The values in the “IC50 μM” column were determined by measuring the inhibition of IL-12 induced Th1 differentiation as defined by IFN-γ production upon secondary stimulation with anti-CD3 alone. None of the compounds affected the viability or recovery of T cells after one week of culture

In test [2] the test system is IL-4 induced T2 differentiation. As to the kind of experiment: T2 differentiation assay (T0 cells stimulated in the presence of IL-4). Format: cell-based. The conditions noted are these: for IC50: T0 cells stimulated in the presence of IL-4, IL-4 secretion as readout; for IL-4 production of resulting effector cells / activation and proliferation of resulting effector cells: T0 cells stimulated in the presence of IL-4 and compound. The method, then:
(R)-7,8-Dihydro-3-(5-hydroxyhexyl)-1-methyl-1H-imidazo[2,1-f]-purine-2,4(3H,6H)-dione (CT-13430) (see Example 1) and (R)-3-(5-Hydroxyhexyl)-1-methyl-6,7,8,9-tetrahydro-pyrimido[2,1-f]purine-2,4(1H,3H)-dione (CT-13431) (see Example 4) were tested to determine their ability to block the differentiation of T0 cells to T2 effectors as judged by their relative inability to secrete the canonical T2 effector cytokine, IL-4, following treatment with the compounds. In a series of experiments analogous to the T1 differentiation assay of Example 10 (in which T0 cells were induced to become T1 effectors by polyclonal stimulation in the presence of IL-12), the above compounds were effective in a T2 differentiation assay in which T0 cells are stimulated in the presence of IL-4, which affects T2 differentiation.

Each structure is given as a SMILES string.

`CC(=O)N1CCn2c1nc1c2c(=O)n(CCCC[C@H](C)O)c(=O)n1C` [compound 30256] returned an IC50 in test [1] of 24 µM.

For `C[C@@H](O)CCCCn1c(=O)c2c(nc3n2CCN3)n(C)c1=O` [compound 13430, (R)-7,8-Dihydro-3-(5-hydroxyhexyl)-1-methyl-1H-imidazo[2,1-f]-purine-2,4(3H,6H)-dione], the IC50 in test [1] worked out at 17 µM. For the same compound, in test [2], the IC50 worked out at 14 µM; the “IL-4 production of resulting effector cells” value was “deficient in IL-4 production”; the “activation and proliferation of resulting effector cells” value is “proliferated normally”.

Regarding `C[C@@H](O)CCCCn1c(=O)c2nc3n(c2n(C)c1=O)CCN3` [compound 30268, (R)-3-(5-hydroxyhexyl)-1-methyl-1,6,7,8-tetrahydro-2H-imidazo[1,2-e]-purine-2,4(3H)-dione], in test [1], it took 20 µM to reach half-maximal inhibition (IC50).

With `C[C@H](N)CCCCn1c(=O)c2c(nc3n2CCCN3)n(C)c1=O` [compound 30263], the IC50 in test [1] stood at 90 µM.

Turning to `C[C@@H](O)CCCCn1c(=O)c2c(nc3n2CCCN3)n(C)c1=O` [compound 13431, (R)-3-(5-Hydroxyhexyl)-1-methyl-6,7,8,9-tetrahydro-pyrimido[2,1-f]purine-2,4(1H,3H)-dione], in test [1], the IC50 amounted to 11 µM. For the same compound, in test [2], the 50% inhibitory concentration (IC50) is 13 µM; the “IL-4 production of resulting effector cells” value is reported as “deficient in IL-4 production”; the “activation and proliferation of resulting effector cells” value is listed as “proliferated normally”.

In test [1], `C[C@@H](O)CCCCn1c(=O)c2c(nc3n2CCS3)n(C)c1=O` [compound 13421, (R)-6,7-Dihydro-3-(5-hydroxyhexyl)-1-methyl-thiazolo[2,3-f]purine-2,4 (1H,3H)-dione] showed an IC50 of 33 µM.

On to `C[C@H](O)CCCCn1c(=O)c2c(nc3n2CCCN3)n(C)c1=O` [compound 30269], for which it took 53 µM to reach half-maximal inhibition in test [1] (IC50).

The compound `C[C@@H](C#N)CCCCn1c(=O)c2c(nc3n2CCN3)n(C)c1=O` [compound 30255, (R)-3-(5-Cyanohexyl)-7,8-dihydro-1-methyl-1H-imidazo[2,1-f]-purine-2,4(3H,6H)-dione] displayed an IC50 in test [1] of 16 µM.

Compound `C[C@@H](C#N)CCCCn1c(=O)c2c(nc3n2CCCN3)n(C)c1=O` [compound 30146, (R)-3-(5-cyanohexyl)-1-methyl-6,7,8,9-tetrahydro-pyrimido[2,1-f]purine-2,4(1H,3H)-dione] gave an IC50 in test [1] of 14 µM.

Compound `C[C@@H](O)CCCCn1c(=O)c2c(nc3n2CCNC3)n(C)c1=O` [compound 30099, (R)-3-(5-hydroxyhexyl)-1-methyl-6,7,8,9-tetrahydro-pyrazino[2,1-f]purine-2,4(1H,3H)-dione] showed an IC50 in test [1] of 22 µM.

In test [1], `C[C@@H](CCCCn1c(=O)c2c(nc3n2CCCN3)n(C)c1=O)N(C)C` [compound 30264] yielded an IC50 of 39 µM.

For the compound `CC(=O)N1CCn2c1nc1c2c(=O)n(CCCC[C@@H](C)O)c(=O)n1C` [compound 30260, (R)-3-(5-Hydroxyhexyl)-1-methyl-6,7-dihydro-2,4-dioxo-8-N-acetyl-1H-imidazo[2,1-f]-purine], 9 µM corresponded to half-maximal inhibition in test [1] (IC50).

As to `CC(=O)N1CCn2c1nc1c2c(=O)n(CCCC[C@@H](C)N)c(=O)n1C` [compound 30259], in test [1], the IC50 was 15 µM.

`C[C@@H](CCCCn1c(=O)c2c(nc3n2CCCN3C)n(C)c1=O)N(C)C` [compound 30262] returned an IC50 in test [1] of 34 µM.

`C[C@H](CCCCn1c(=O)c2c(nc3n2CCCN3)n(C)c1=O)N(C)C` [compound 30267] gave an IC50 in test [1] of 34 µM.

One may read the IC50 as the concentration that gives 50% inhibition.

These data come from patent US7247630B2, “Uses of tricyclic compounds” (Cell Therapeutics, Inc., priority 2000, dated 2007).
